# Laboratory results from publication PMC5062570 (Nature Communications, 2016).
# “Also recorded” adds a separate entry of the source. Read-outs that look alike come from different tables or passages of the source.
# Experiments:
# [1] = molecular target: T1, BACE1 (Homo sapiens, UniProt P56817); test: BACE1 biochemical cellular assay (sAPPβ ELISA in H4 cells overexpressing APP695); format: cell-based; set-up: endogenous in cells; host or cells: H4 human neuroglioma cells overexpressing human APP695; settings: for BACE1 potency increase in live cells: BACE1 enzyme IC50 versus BACE1 cellular IC50; for IC50: sAPPβ ELISA, H4 neuroglioma cells with human wild-type APP
# Description: Cellular inhibition of BACE1 was determined by measuring sAPPβ, the primary cleavage product of BACE-1, in H4 human neuroglioma cells overexpressing the wild-type human APP695. […] The colorimetric reaction was read by an EnVision plate reader (PerkinElmer).
# Target sequence in this assay (P56817 46-501): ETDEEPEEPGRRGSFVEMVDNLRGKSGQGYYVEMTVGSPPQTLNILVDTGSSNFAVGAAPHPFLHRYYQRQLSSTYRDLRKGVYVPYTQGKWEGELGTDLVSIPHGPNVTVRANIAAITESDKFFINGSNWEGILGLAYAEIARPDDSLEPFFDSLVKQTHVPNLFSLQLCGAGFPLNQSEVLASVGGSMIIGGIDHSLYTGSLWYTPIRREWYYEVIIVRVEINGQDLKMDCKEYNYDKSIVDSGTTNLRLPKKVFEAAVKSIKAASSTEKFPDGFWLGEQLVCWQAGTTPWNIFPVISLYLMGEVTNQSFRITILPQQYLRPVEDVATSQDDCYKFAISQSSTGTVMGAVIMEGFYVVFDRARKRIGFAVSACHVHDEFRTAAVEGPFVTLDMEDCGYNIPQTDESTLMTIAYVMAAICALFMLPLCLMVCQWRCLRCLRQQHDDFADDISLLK
# [2] = test system: retinal pigment epithelium (RPE); test: Exploratory toxicology, ocular toxicity by retinal histology in rats; format: in vivo; settings: 14 days; for Female ocular toxicity incidence (positive or negative animals / total evaluated) / Female ocular toxicity outcome / Male ocular toxicity incidence (positive or negative animals / total evaluated) / Male ocular toxicity outcome: rat; for Retinal finding by fluorescence microscopy: rats
# Description: Wistar Han rats (obtained from Charles River, 125–300 g, 6–9 weeks old at study start, see Supplementary Table 7 for number of males and females) received daily oral dosing of test compounds or vehicle at the indicated concentrations for 7–29 days as indicated. The doses were prepared in a solution of 0.5% methylcellulose and 0.2% polysorbate 80, or 0.5% methylcellulose and hydroxypropyl methylcellulose acetate succinate (high fine grade) and delivered in a volume of 10 ml kg^−1 per day. Blood samples for bioanalytical analysis were collected in K2EDTA tubes via jugular vessel. Plasma was isolated after centrifugation and stored at −20 °C prior to analysis. Animals were given an additional dose the day after the end of the study (days 8, 15 or 30 for 7, 14 and 29 day studies, respectively) then killed by gas anaesthesia (isoflurane) followed by exsanguination ∼3 h after this final dose.
# [3] = molecular target: T1, BACE1; test: BACE1 purified enzyme fluorescence polarization assay; format: biochemical; set-up: His (C); made in house; host or cells: CHO-K1; settings: purified human enzyme, fluorescence polarization, peptide substrate
# Target sequence in this assay (P56817 46-457): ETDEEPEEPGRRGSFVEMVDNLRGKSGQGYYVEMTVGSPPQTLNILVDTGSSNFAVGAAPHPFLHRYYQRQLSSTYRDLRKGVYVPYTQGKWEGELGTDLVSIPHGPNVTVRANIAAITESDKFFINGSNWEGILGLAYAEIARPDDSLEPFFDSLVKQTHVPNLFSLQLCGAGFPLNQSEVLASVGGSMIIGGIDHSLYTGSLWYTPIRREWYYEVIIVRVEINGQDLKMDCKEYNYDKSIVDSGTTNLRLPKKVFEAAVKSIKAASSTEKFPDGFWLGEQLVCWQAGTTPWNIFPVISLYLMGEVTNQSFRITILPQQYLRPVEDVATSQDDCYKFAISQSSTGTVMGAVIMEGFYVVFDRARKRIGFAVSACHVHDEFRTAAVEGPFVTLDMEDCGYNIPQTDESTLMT
# [4] = test system: retinal pigment epithelium (RPE); test: Exploratory toxicology, ocular toxicity by retinal histology in dogs; format: in vivo; settings: 14 days; for Female ocular toxicity incidence (positive or negative animals / total evaluated) / Female ocular toxicity outcome / Male ocular toxicity incidence (positive or negative animals / total evaluated) / Male ocular toxicity outcome: dog; for Retinal finding by fluorescence microscopy: dogs
# Description: (§1) Naive […] beagle dogs (Canis lupus familiaris, >8 months old, n=1 male and n=1 female per group) received daily oral dosing of test compounds or vehicle for 14 days at the indicated concentrations. The doses were prepared in a solution of 0.5% methylcellulose and hydroxypropyl methylcellulose acetate succinate (high fine grade) and delivered in a volume of 5 ml kg^−1 per day. Blood samples for bioanalytical analysis were collected in K2EDTA tubes via jugular vessel. Plasma was isolated after centrifugation and stored at –20 °C before analysis. Animals were killed via intravenous administration of barbiturate followed by exsanguination ∼3 h after the final dose on day 15.
# [5] = Plasma exposure (average unbound plasma concentration) in dogs; format: in vivo; settings: both sexes, beagle, oral, dog, read-out: Avg Cp,u parent
# Description: as §1
# Plasma samples were analysed after protein precipitation by treating 20 μl of sample matrix with 200 μl of acetonitrile containing internal standard. All samples were centrifuged at 3,000 r.p.m. for 5 min. Then 100 μl of supernatant was transferred to a clean plate and evaporated to dryness under N2. Samples were reconstituted in 200 μl of 80:20 (v:v) acetonitrile:water. Samples were analysed on Waters Acquity UPLC connected to AB Sciex API5500 QTrap MS/MS.
# Plasma protein binding was determined in the Rapid Equilibrium Device (RED, Thermo Scientific). […] Samples were protein-precipitated with acetonitrile containing internal standard, and the resulting supernatant was analysed by LC-MS/MS.
# [6] = test system: aspartyl proteases (BACE2, cathepsin D, cathepsin E, pepsin and renin); settings: assays with purified proteins; cited from earlier work
# [7] = test system: BACE2; settings: purified aspartyl proteases; not previously disclosed
# [8] = molecular target: T2, purified CatD (Homo sapiens, UniProt P07339); test: PF-7802 labelling of purified CatD (probe-based competition); format: binding; settings: 250 nM purified human mature CatD, NaOAc pH 4.5, PF-7802 100 nM
# T2 construct: final maturation into a non-covalently associated heavy chain and light chain; purchased Sigma C8696; host or cells: human liver
# T2 sequence (P07339 65-162 limits assumed): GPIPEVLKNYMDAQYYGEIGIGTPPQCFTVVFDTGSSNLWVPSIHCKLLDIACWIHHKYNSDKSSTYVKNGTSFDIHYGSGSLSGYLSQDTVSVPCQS
# T2 sequence (P07339 169-412 limits assumed): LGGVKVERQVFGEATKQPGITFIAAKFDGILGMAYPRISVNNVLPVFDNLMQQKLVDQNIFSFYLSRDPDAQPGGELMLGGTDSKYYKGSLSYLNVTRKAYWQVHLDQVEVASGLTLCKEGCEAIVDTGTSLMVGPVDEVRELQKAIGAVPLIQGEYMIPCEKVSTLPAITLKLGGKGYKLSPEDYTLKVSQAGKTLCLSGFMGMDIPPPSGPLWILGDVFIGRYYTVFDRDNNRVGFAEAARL
# Description: Purified CatD (Sigma C8696, isolated from human liver) or proCatD (R&D systems 1014-AS) was reconstituted and diluted to 250 nM in NaOAc buffer (50 mM, pH 4.5, 0.0001% Tween-20). […] Samples were analysed by in-gel fluorescence scanning and western blot with an α-CatD antibody (R&D Systems AF-1014) as described above for CatD knockdown.
# [9] = test system: CatE; settings: purified aspartyl proteases; not previously disclosed
compound,measurement,setting,value
Cc1cc([C@H]2C[C@H]3[C@@H](CF)SC(N)=N[C@@]3(c3ccc(F)cc3F)CO2)on1 [PF-3195],BACE1 potency increase in live cells,[1],4.1 x
same,IC50,[1],0.015 µM
same,Female ocular toxicity incidence (positive or negative animals / total evaluated),[2]; 15 mg kg-1 once daily,3/3
same,Female ocular toxicity outcome,[2]; 15 mg kg-1 once daily,Neg (negative (neg) if there was no ocular abnormality observed)
same,Male ocular toxicity incidence (positive or negative animals / total evaluated),[2]; 15 mg kg-1 once daily,3/3
same,Male ocular toxicity outcome,[2]; 15 mg kg-1 once daily,Neg (negative (neg) if there was no ocular abnormality observed)
same,Female ocular toxicity incidence (positive or negative animals / total evaluated),[2]; 40 mg kg-1 once daily,3/3
same,Female ocular toxicity outcome,[2]; 40 mg kg-1 once daily,Neg (negative (neg) if there was no ocular abnormality observed)
same,Male ocular toxicity incidence (positive or negative animals / total evaluated),[2]; 40 mg kg-1 once daily,3/3
same,Male ocular toxicity outcome,[2]; 40 mg kg-1 once daily,Neg (negative (neg) if there was no ocular abnormality observed)
same,Female ocular toxicity incidence (positive or negative animals / total evaluated),[2]; 90 mg kg-1 once daily,2/3
same,Female ocular toxicity outcome,[2]; 90 mg kg-1 once daily,Pos
same,Male ocular toxicity incidence (positive or negative animals / total evaluated),[2]; 90 mg kg-1 once daily,1/3
same,Male ocular toxicity outcome,[2]; 90 mg kg-1 once daily,Pos
same,Female ocular toxicity incidence (positive or negative animals / total evaluated),[2]; 200 mg kg-1 once daily,2/3
same,Female ocular toxicity outcome,[2]; 200 mg kg-1 once daily,Pos
same,Male ocular toxicity incidence (positive or negative animals / total evaluated),[2]; 200 mg kg-1 once daily,3/3
same,Male ocular toxicity outcome,[2]; 200 mg kg-1 once daily,Pos
same,Retinal finding by fluorescence microscopy,[2]; 15 mg kg-1 or 40 mg kg-1 daily,no intermediate phenotype
same,Retinal finding by fluorescence microscopy,[2]; 90 mg kg-1 or 200 mg kg-1 daily,accumulated autofluorescent granules
same,IC50,[3],0.062 µM
Cc1cc([C@H]2C[C@H]3[C@@H](C)SC(N)=N[C@@]3(c3ccc(F)cc3F)CO2)on1 [PF-9283],Female ocular toxicity incidence (positive or negative animals / total evaluated),[4]; 3 mg kg-1 once daily,1/1
same,Female ocular toxicity outcome,[4]; 3 mg kg-1 once daily,Neg (negative (neg) if there was no ocular abnormality observed)
same,Male ocular toxicity incidence (positive or negative animals / total evaluated),[4]; 3 mg kg-1 once daily,1/1
same,Male ocular toxicity outcome,[4]; 3 mg kg-1 once daily,Neg (negative (neg) if there was no ocular abnormality observed)
same,Female ocular toxicity incidence (positive or negative animals / total evaluated),[4]; 9 mg kg-1 once daily,1/1
same,Female ocular toxicity outcome,[4]; 9 mg kg-1 once daily,Neg (negative (neg) if there was no ocular abnormality observed)
same,Male ocular toxicity incidence (positive or negative animals / total evaluated),[4]; 9 mg kg-1 once daily,1/1
same,Male ocular toxicity outcome,[4]; 9 mg kg-1 once daily,Pos
same,Retinal finding by fluorescence microscopy,[4]; 3 mg kg-1 daily,not after 3 mg kg-1 dosing
same,Retinal finding by fluorescence microscopy,[4]; 9 mg kg-1 daily,accumulated autofluorescent
same,concentration at 14 days,[5]; 3 mg kg-1 once daily,32 nM
same,concentration at 14 days,[5]; 9 mg kg-1 once daily,401 nM
same,Selectivity for BACE1 over cathepsins D and E,[6],more than 200 fold
same,Fold selectivity for BACE1 over BACE2,[7],1.9 fold
same,BACE1 potency increase in live cells,[1],12 x
same,IC50,[1],0.006 µM
same,Competition of PF-7802 labelling of purified mature CatD,[8],competed by pretreatment with PF-9283 in a concentration-dependent manner; also recorded: concentration-dependently competed
same,Fold selectivity for BACE1 over CatE,[9],320 fold
same,Female ocular toxicity incidence (positive or negative animals / total evaluated),[2]; 30 mg kg-1 once daily,1/3
same,Female ocular toxicity outcome,[2]; 30 mg kg-1 once daily,Pos
same,Male ocular toxicity incidence (positive or negative animals / total evaluated),[2]; 30 mg kg-1 once daily,3/3
same,Male ocular toxicity outcome,[2]; 30 mg kg-1 once daily,Neg (negative (neg) if there was no ocular abnormality observed)
same,Retinal finding by fluorescence microscopy,[2]; 80 mg kg-1 daily,accumulation of autofluorescent granules (AFG) in the RPE; also recorded: accumulated autofluorescent granules are visible
same,IC50,[3],0.074 µM
